Molecules are shown by their SMILES. pIC50: −log10 of the molar value.

The target in assay [1] is T1, BA/F3-FLT3-ITD + D835Y cells (Homo sapiens, UniProt P36888, D835Y, cells depend on it, form not given).
T1 sequence (P36888 1-993 D835Y): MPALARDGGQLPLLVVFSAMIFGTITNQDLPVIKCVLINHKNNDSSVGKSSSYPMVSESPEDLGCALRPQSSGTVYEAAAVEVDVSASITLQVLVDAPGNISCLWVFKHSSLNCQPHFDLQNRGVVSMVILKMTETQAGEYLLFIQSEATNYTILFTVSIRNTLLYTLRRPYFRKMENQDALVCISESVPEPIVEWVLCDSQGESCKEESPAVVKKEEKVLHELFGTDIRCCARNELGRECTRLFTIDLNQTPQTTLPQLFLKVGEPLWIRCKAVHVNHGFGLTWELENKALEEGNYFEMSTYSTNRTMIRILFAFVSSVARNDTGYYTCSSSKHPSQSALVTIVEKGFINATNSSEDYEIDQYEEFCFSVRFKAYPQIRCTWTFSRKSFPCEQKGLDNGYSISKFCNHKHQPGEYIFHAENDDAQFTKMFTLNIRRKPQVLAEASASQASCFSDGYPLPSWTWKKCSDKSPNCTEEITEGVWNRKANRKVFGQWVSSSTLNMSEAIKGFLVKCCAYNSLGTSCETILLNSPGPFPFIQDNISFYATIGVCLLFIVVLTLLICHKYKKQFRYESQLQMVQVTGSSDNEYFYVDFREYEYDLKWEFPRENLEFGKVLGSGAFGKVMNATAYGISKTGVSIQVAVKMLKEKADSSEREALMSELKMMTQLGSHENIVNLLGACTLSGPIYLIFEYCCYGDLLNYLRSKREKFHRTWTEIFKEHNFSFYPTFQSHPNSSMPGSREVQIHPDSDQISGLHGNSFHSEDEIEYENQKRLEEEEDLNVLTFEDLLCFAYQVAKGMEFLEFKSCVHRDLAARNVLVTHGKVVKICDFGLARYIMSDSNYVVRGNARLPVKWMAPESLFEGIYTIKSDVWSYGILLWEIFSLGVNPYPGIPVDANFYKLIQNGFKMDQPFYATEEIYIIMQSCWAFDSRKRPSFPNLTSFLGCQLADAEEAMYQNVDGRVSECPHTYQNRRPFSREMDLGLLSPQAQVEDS
As to the kind of experiment: Cell proliferation assay (CellTiter-Glo), engineered BA/F3 cells. Format: cell-based, murine. To be noted: BaF3 FLT3 ITD/D835Y cells, 3d-Growth; read-out: BaF3_FLT3 ITD/D835Y 3d-Growth: IC50. An excerpt: (§1) The FLT3 inhibitors may be assessed using the MOLM-14, Acute Myeloid Leukemia cell line that endogenously expresses FLT3 ITD or derivatives of the human FLT3 AML cell line which acquired the D835Y (activation loop) of F691L (gatekeeper) mutation after selection in escalating doses of the FLT3 Inhibitor AC220. FLT3 inhibitors may also be assessed using cells that are engineered to express mutant FLT3. For engineered cells, murine Ba/F3 cells were transfected with full-length FLT3 ITD/D835Y mutations. The parental BA/F3 cells are dependent upon Interleukin-3 (IL-3) for survival, and introduction of the FLT3 constructs rendered these cells dependent upon FLT3 kinase activity when cultured in the absences of IL-3. Engineered BA/F3 cell growth assays can be performed in either the […] of IL-3, to assess the compound inhibition of FLT3 or to detect the presence of off-target activity, respectively. Inhibitors of FLT3 kinase activity reduce or eliminate the FLT3 oncogenic signaling, resulting in reduced cell proliferation. This inhibition is measured as a function of compound concentration to asses IC50 values.
(§2) Cell lines used in proliferation assays are as follows in Table 3:
(§3) Cells were seeded at 1×10^4 cells per well of a 96 well cell culture plate in 50 μl of cell culture medium. Compounds were dissolved in DMSO, typically at a concentration of 0.5 mM and were serially diluted 1:3 for a total of eight points and added to the cells to final concentrations of […], 0.0041, 0.0014 and 0.00046 μM in 100 μl cell culture medium (final concentration 0.2% DMSO). […] The cells were incubated at 37° C., 5% CO2 for three days. CellTiter-Glo Buffer (Promega Cell Viability Assay catalog #G7573) and substrate were equilibrated to room temperature, and enzyme/substrate Recombinant Firefly Luciferase/Beetle Luciferin was reconstituted. The cell plates were equilibrated to room temperature for 30 minutes, then lysed by addition of an equivalent volume of the Celltiter-Glo Reagent. The plate was mixed for 10 minutes on a plate shaker to lyse the cells. The plates were read on a Tecan M1000 using Luminescence protocol modified to read 0.1 s per well. The luminescence reading assesses the ATP content, which correlates directly with cell number such that the reading as a function of compound concentration was used to determine the IC50 value.

The target in assay [2] is T2, c-KIT (Homo sapiens, UniProt P10721).
T2 construct: purchased Millipore 14-559K
As to the kind of experiment: AlphaScreen kinase assay with recombinant enzyme, c-KIT. The assay is classed as biochemical. To be noted: 100ATP, 8pt, GMean. As to the method:
(§4) In order to determine the effect of compounds on FLT3 catalytic activity, kinase assays using recombinant enzymes and AlphaScreen® technology have been established. The catalytic activity of c-kit activity was also measured to determine selectivity of the compounds. When the kinases are catalytically active, they phosphorylate a biotinylated peptide substrate on tyrosine residues. Using AlphaScreen® technology, the ability of the compounds to affect the catalytic activity of the kinases can be measured quantitatively. The peptide substrate is immobilized by the AlphaScreen® Streptavidin Donor beads and, upon phosphorylation by a tyrosine kinase, can bind to AlphaScreen® Anti-Phosphotyrosine (PY20) Acceptor beads. Upon excitation of these beads with laser light at 680 nm, singlet oxygen is produced. This singlet oxygen is rapidly quenched, unless the AlphaScreen® Anti-Phosphotyrosine (PY20) Acceptor beads are in close proximity, in which case a proximity signal can be measured at 580 nm. In the presence of catalytic activity, there is a very strong proximity signal. Selective kinase inhibitors affect a decrease in this proximity signal through a decrease in tyrosine phosphorylation of the peptide substrate.
(§5) The assay was performed as summarized below.
(§6) Poly (Glu4-Tyr) Peptide, biotin conjugate [Biotin-GG(EEEEY)10EE] (SEQ ID NO: 4)
(§7) Final concentration=30 nM
(§8) Final concentration for IC50 determination=10 μM (FLT3-D835Y or FLT3-ITD) or 100 μM (c-KIT)
(§9) AlphaScreen® Phosphotyrosine (PY20) Assay Kit
(§10) Final concentration=10 μg/mL
(§11) Dilute compounds in DMSO to 20× final concentration.
(§12) Add 1 μl of compound to each well of 384 well reaction plate (Perkin Elmer #6005359).
(§13) Mix enzyme and Poly (Glu4-Tyr) Peptide substrate at 1.33× final concentration in assay buffer.
(§14) Mix ATP at 5× final concentration in assay buffer.
(§15) Add 15 μL enzyme/substrate mixture to the reaction plate.
(§16) Add 4 μL of ATP to the reaction plate.
(§17) Mix Streptavidin Donor beads at 6× final concentration in Stop/Detection buffer.
(§18) Add 5 μL Streptavidin Donor beads to the reaction plate. Centrifuge 1 minute, shake to mix, and incubate at room temperature for 20 minutes.
(§19) Mix Anti-Phosphotyrosine (PY20) Acceptor beads at 6× final concentration in Stop/Detection buffer.
(§20) Add 5 μL Anti-Phosphotyrosine (PY20) beads to the reaction plate.
(§21) Centrifuge 1 minute, shake to mix, and incubate at room temperature for 60 minutes.
(§22) Read plate on Wallac EnVision™ 2103 Multilabel Reader.

The subject of assay [3] is MOLM-14 D835Y cells, FLT3 ITD and FLT3 D835Y. Description: Cell proliferation assay (CellTiter-Glo), MOLM-14 D835Y. Format: cell-based. The note with it: Homo sapiens, 72 h, 3d-Growth, GMean.
Description: as §1, §2, §3

In assay [4] the test system is MOLM-14 F691L cells, FLT3 ITD and FLT3 F691L. Description: Cell proliferation assay (CellTiter-Glo), MOLM-14 F691L. The assay is classed as cell-based. To be noted: Homo sapiens, 72 h, 3d-Growth, GMean.
Description: as §1, §2, §3

Assay [5] addresses T3, FLT3-D835Y (Homo sapiens, UniProt P36888, D835Y).
T3 construct: purchased Invitrogen PV3967
T3 sequence (P36888 27-993 D835Y): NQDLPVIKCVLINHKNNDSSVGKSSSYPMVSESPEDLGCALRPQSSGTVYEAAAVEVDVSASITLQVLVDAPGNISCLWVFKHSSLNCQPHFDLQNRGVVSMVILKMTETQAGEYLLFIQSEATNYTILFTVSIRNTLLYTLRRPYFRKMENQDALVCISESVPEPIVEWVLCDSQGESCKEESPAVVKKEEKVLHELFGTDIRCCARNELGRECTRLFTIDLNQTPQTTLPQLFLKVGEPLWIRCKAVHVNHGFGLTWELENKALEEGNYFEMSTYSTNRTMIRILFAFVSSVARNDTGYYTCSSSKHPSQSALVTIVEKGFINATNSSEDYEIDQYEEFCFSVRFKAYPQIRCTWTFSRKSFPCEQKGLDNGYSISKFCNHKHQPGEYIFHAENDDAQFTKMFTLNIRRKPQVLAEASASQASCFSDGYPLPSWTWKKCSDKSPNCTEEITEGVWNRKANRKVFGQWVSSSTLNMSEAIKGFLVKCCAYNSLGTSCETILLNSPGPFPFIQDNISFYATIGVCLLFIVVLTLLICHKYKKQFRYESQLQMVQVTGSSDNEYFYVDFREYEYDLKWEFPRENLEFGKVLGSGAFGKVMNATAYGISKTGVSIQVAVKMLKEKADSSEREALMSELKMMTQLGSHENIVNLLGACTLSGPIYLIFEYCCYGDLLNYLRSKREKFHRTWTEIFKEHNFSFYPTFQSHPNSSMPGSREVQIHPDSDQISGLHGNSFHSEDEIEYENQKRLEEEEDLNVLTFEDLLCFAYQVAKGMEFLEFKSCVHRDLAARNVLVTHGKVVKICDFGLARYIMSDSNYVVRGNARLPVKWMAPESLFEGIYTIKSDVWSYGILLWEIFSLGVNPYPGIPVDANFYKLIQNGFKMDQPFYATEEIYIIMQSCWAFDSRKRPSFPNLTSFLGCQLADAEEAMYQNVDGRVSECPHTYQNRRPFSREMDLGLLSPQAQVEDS
Description: AlphaScreen kinase assay with recombinant enzyme, FLT3-D835Y. Format: biochemical. The note with it: 8pt, GMean. As to the method:
as §4, §5, §6, §7, §8, §9, §10, §11, §12, §13, §14, §15, §16, §17, §18, §19, §20, §21, §22

T2 sequence (P10721 26-976): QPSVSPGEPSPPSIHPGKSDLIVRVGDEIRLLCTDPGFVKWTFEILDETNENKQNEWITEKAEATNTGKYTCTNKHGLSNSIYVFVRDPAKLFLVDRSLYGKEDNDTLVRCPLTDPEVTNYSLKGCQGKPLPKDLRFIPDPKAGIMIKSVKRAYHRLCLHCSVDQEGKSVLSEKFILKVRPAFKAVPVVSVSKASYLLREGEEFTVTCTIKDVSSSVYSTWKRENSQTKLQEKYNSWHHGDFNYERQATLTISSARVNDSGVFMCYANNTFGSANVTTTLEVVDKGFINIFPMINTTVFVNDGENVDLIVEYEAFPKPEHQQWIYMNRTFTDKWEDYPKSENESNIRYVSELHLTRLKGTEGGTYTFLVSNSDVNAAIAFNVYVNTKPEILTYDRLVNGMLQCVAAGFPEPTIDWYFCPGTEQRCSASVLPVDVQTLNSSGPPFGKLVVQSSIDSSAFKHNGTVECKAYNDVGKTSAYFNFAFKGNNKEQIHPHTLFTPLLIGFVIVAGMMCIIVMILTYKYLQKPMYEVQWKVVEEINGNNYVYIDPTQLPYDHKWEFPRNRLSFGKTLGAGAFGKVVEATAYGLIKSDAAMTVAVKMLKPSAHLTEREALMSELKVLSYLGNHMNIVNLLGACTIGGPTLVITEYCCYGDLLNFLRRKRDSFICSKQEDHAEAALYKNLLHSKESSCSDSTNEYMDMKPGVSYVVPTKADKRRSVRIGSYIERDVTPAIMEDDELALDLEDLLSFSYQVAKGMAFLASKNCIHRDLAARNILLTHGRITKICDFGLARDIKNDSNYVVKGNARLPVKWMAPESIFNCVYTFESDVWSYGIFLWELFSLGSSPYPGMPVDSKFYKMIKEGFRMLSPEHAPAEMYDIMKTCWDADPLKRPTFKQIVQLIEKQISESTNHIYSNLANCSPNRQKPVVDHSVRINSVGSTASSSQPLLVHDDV

For `CC(C)(C#N)CNS(=O)(=O)c1cccc(-c2cnc3[nH]c(-c4ccccc4)cc3c2)n1` [Compound P-0108, N-(2-cyano-2-methyl-propyl)-6-(2-phenyl-1H-pyrrolo[2,3-b]pyridin-5-yl)pyridine-2-sulfonamide], in assay [1], the GI50 is 0.0001 to 10 µM. Also, the figures for the pIC50 in assay [2] and in assay [3] were 4.00 to 4.30 and 5.00 to 10.00, respectively.
In the case of `N#CCCCNC(=O)c1cccc(-c2cnc3[nH]c(-c4ccccc4)cc3c2)n1` [Compound P-0128, N-(3-cyanopropyl)-6-(2-phenyl-1H-pyrrolo[2,3-b]pyridin-5-yl)pyridine-2-carboxamide], the pIC50 in assay [4], in assay [5] and in assay [3] was 5.00 to 10.00 throughout.
On to `CC(C)(C#N)NC(=O)c1cccc(-c2cnc3[nH]c(-c4cnn(C5CCNCC5)c4)c(Cl)c3c2)n1` [Compound P-0207, 6-[3-chloro-2-[1-(4-piperidyl)pyrazol-4-yl]-1H-pyrrolo[2,3-b]pyridin-5-yl]-N-(1-cyano-1-methyl-ethyl)pyridine-2-carboxamide], for which the pIC50 in assay [4], in assay [5] and in assay [3] was 5.00 to 10.00 in each case.

(Values after US9938273B2 (Plexxikon Inc., priority 2015, dated 2018).)
